Laboratory results from US20260008746A1, “CATIONIC LIPID COMPOUND WITH HIGH EFFICIENCY, LOW TOXICITY AND STABLE EXPRESSION, AND COMPOSITION COMPRISNG SAME” (HANGZHOU TIANLONG PHARMACEUTICAL CO., LTD, priority 2023, published 2026).

How the values were obtained:
[1] = Determination of particle size and polydispersity index (PDI) of lipid nanoparticles by dynamic light scattering; assay type: physicochemical; settings: LNP formulation of named cationic lipid/DSPC/cholesterol/DMG-PEG2000 49:10:39.5:1.5; for Particle size (nm): 90° scattering angle, 25° C
Description: The cationic lipids listed in Table 1 were dissolved in ethanol with DSPC (AVT (Shanghai) Pharmaceutical Technology Co., Ltd.), cholesterol (AVT (Shanghai) Pharmaceutical Technology Co., Ltd.) and DMG-PEG2000 according to a molar ratio of 49:10:39.5:1.5, respectively, to prepare lipid solution in ethanol. The lipid solution in ethanol was quickly added to citrate buffer (pH=4 to 5) by ethanol injection method, and vortexed for 30 s for later use. eGFP-mRNA (from Shanghai Biohub International Trade Co., Ltd) or Fluc-mRNA (from Shanghai Biohub International Trade Co., Ltd) was diluted in citrate buffer (pH=4 to 5) to give an aqueous mRNA solution. A certain volume of liposome solution and mRNA aqueous solution were used to prepare liposomes at a weight ratio of total lipids to mRNA of 15:1. The mixtures were sonicated at 25° C. for 15 min (with an ultrasonic frequency of 40 kHz and an ultrasonic power of 800 W). The resulting liposomes were diluted to 10 times volume with PBS, and then ultrafiltered with a 300 KDa ultrafiltration tube to remove ethanol. Then the volume was fixed to a certain volume with PBS to give an LNP formulation encapsulating eGFP-mRNA or Fluc-mRNA using cationic lipid/DSPC/cholesterol/DMG-PEG2000 (49:10:39.5:1.5 in molar percentage).
The particle size and polydispersity index (PDI) were determined by dynamic light scattering using Malvern laser particle size analyzer.
10 μL of the liposome solution was weighed, diluted to 1 mL with RNase-free deionized water, and added to the sample pool. Each sample was measured in triplicate. The measurement conditions were: 90° scattering angle, and 25° C.

293T cells [2] = assay: Fluorescent detection of Fluc-mRNA (cell transfection efficiency of LNP formulations); assay type: cell-based; settings: for Relative light unit (RLU): LNP formulation containing 0.3 μg Fluc-mRNA, 96-well plate, 24 hours; for Multiples (YK-101): RLU of YK-101 / RLU of named substance; for Multiples (YK-107): RLU of YK-107 / RLU of named substance; for Multiples (YK-108): RLU of YK-108 / RLU of named substance; for Ratio relative to SM-102: RLU of named substance / RLU of SM-102
In short: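 293T cells seeded at 10,000 per well, cultured overnight, then given LNP carrying 0.3 μg Fluc-mRNA (cationic:neutral:structured:PEG-lipid 49:10:39.5:1.5 molar). Incubated 24 h. Luciferase signal read with kit reagent on an IVIS imaging system.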

293T cells [3] = assay: Cell survival rate determination (CCK-8); assay type: cell-based; settings: for Cell survival rate (%): LNP formulation containing 1.5 μg Fluc-mRNA, 24 hours, CCK-8, absorbance at 450 nm; for cell survival rate lower than that of YK-101: cell survival rate of YK-101 minus that of named substance; for cell survival rate lower than that of YK-107: cell survival rate of YK-107 minus that of named substance; for cell survival rate lower than that of YK-108: cell survival rate of YK-108 minus that of named substance
In short: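 293T cells were seeded overnight at 10,000 cells/well in 96-well plates, then exposed for 24 h to LNP containing 1.5 μg Fluc-mRNA (cationic:neutral:structural:polymer-conjugated lipid, 49:10:39.5:1.5 molar) or to Lipofectamine 3000. Viability was read by CCK-8, 1 h incubation, absorbance 450 nm.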

BALB/C mice = assay: In vivo imaging of Fluc-mRNA expression in mice delivered by LNP formulations; settings: for average radiation intensity, 6 h / average radiation intensity, 24 h / average radiation intensity, 48 h / average radiation intensity, 7 d: LNP containing 10 pg Fluc-mRNA, intramuscular, female BALB/C mice
In short: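 Female BALB/C mice (4-6 weeks, 17-19 g) received LNP carrying […] Fluc-mRNA intramuscularly. Substrate was given intraperitoneally at 6 h, 24 h, 48 h and 7 d, and average radiance was imaged by IVIS 5 min later.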

SMILES	PDI(%) [1] [%]	Particle size (nm) [1] [nm]	Relative light unit (RLU) (293T cells [2])	Multiples (YK-101) (293T cells [2])	Multiples (YK-107) (293T cells [2])	Multiples (YK-108) (293T cells [2])	Ratio relative to SM-102 (293T cells [2])	Cell survival rate (%) (293T cells [3])	cell survival rate lower than that of YK-101 (293T cells [3]) [%]	cell survival rate lower than that of YK-107 (293T cells [3]) [%]	cell survival rate lower than that of YK-108 (293T cells [3]) [%]	average radiation intensity of YK-101, times that of named substance (BALB/C mice; 6 h) [times]	average radiation intensity of YK-107, times that of named substance (BALB/C mice; 6 h) [times]	average radiation intensity of YK-108, times that of named substance (BALB/C mice; 6 h) [times]	average radiation intensity of YK-101, times that of named substance (BALB/C mice; 24 h) [times]	average radiation intensity of YK-107, times that of named substance (BALB/C mice; 24 h) [times]	average radiation intensity of YK-108, times that of named substance (BALB/C mice; 24 h) [times]	average radiation intensity, 6 h (BALB/C mice; 6 h)	average radiation intensity, 24 h (BALB/C mice; 24 h)	average radiation intensity, 7 d (BALB/C mice; 7 d)	further results
CCCCCCC(CCCCCC)CCOC(=O)CCCCCCCN(CCO)CCCCCCCC(=O)OCCC(CCCCCC)CCCCCC [Compound 23, bis(3-hexylnonyl)-8, 8′-((2-hydroxyethyl)azadialkyl)dioctanoate, reference compound]	7.7	140	1290824	15.75	17.32	19.10	0.84	70.91	19.21	19.54	18.95	2.5	2.7	3.4	9.4	11.6	12.5	599850	112670	5863	average radiation intensity of YK-101, times that of named substance (BALB/C mice; 48 h): 5.6 times; average radiation intensity of YK-107, times that of named substance (BALB/C mice; 48 h): 6.8 times; average radiation intensity of YK-108, times that of named substance (BALB/C mice; 48 h): 7.0 times; average radiation intensity of YK-101, times that of named substance (BALB/C mice; 7 d): 2.1 times; average radiation intensity of YK-107, times that of named substance (BALB/C mice; 7 d): 2.3 times; average radiation intensity of YK-108, times that of named substance (BALB/C mice; 7 d): 2.4 times; average radiation intensity, 48 h (BALB/C mice; 48 h): 33060
CCCCCCCCCCCCC(O)CN(C)CCCCCC(=O)OCC(CCCCCC)CCCCCCCC (stereo not drawn) [HHMA, reference compound]	12.2	138	2047757	9.93	10.92	12.04	1.33	67.77	22.35	22.68	22.09	2.3	2.5	3.2	9.1	11.3	12.2	639280	115530	5235	average radiation intensity of YK-101, times that of named substance (BALB/C mice; 48 h): 6.0 times; average radiation intensity of YK-107, times that of named substance (BALB/C mice; 48 h): 7.3 times; average radiation intensity of YK-108, times that of named substance (BALB/C mice; 48 h): 7.5 times; average radiation intensity of YK-101, times that of named substance (BALB/C mice; 7 d): 2.3 times; average radiation intensity of YK-107, times that of named substance (BALB/C mice; 7 d): 2.5 times; average radiation intensity of YK-108, times that of named substance (BALB/C mice; 7 d): 2.7 times
CCCCCCCCCCCOC(=O)CCCCCN(CCO)CCCCCCCC(=O)OC(CCCCCCCC)CCCCCCCC [SM-102, reference compound]	17.4	142	1534210	13.25	14.58	16.07	1.00	68.17	21.95	22.28	21.69	2.2	2.3	2.9	9.0	11.1	11.9	689570	117750	5834	average radiation intensity of YK-101, times that of named substance (BALB/C mice; 48 h): 5.8 times; average radiation intensity of YK-107, times that of named substance (BALB/C mice; 48 h): 7.1 times; average radiation intensity of YK-108, times that of named substance (BALB/C mice; 48 h): 7.2 times; average radiation intensity of YK-101, times that of named substance (BALB/C mice; 7 d): 2.1 times; average radiation intensity of YK-107, times that of named substance (BALB/C mice; 7 d): 2.3 times; average radiation intensity of YK-108, times that of named substance (BALB/C mice; 7 d): 2.4 times; average radiation intensity, 48 h (BALB/C mice; 48 h): 31900; expression amount of mRNA in mice of YK-108, times that of named substance (BALB/C mice; highest multiple, time point not stated): up to 11 times
CCCCCCCCCCOC(=O)CCCN(CCO)CCCCCC(=O)OCC(CCCCCCCC)CCCCCCCC [YK-009, reference compound]	12.1	205	5075954	4.01	4.41	4.86	3.31	73.57	16.55	16.88	16.29							1055200	770050	10665	average radiation intensity, 48 h (BALB/C mice; 48 h): 132100
